In ChEMBL document CHEMBL1201862, “PubChem BioAssay data set” (2004):
Values joined by “and” are separate entries in the source; they are usually repeats but may differ in a detail not shown here. Equal values may be shown once.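 Protocol summary: plate cells (96-well), add compound at 5 concentrations, incubate 48 h, interpolate endpoints linearly. GI50 marks 50% less growth.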 Active and inactive are the calls of the source. Cut-off read from the data, not from the text of the source: active = GI50 up to about 1.1 µM and inactive = higher. Non-standard residues stand in square brackets, D forms with d. Residues, ends and D or L forms follow the SMILES beside them. ξ: configuration not given here. *: point of attachment. ξF = NC(Cc1ccccc1)C(=O)O; Cbz = O=C(OCc1ccccc1)*; Aib = CC(C)(N)C(=O)O

Columns and labels:
Assay in all cases: DTP human tumour cell line panel, 48 h
HCT-15 = test system: HCT-15
RPMI-8226 = test system: RPMI-8226
HOP-62 = test system: HOP-62
Malme-3M = test system: Malme-3M
NCI-H460 = test system: NCI-H460
CCRF-CEM = test system: CCRF-CEM
NCI-H23 = test system: NCI-H23
HL-60 = test system: HL-60
TK-10 = test system: TK-10
SF-295 = test system: SF-295
SN12C = test system: SN12C
EKVX = test system: EKVX
UACC-62 = test system: UACC-62
OVCAR-3 = test system: OVCAR-3
KM12 = test system: KM12
SK-MEL-2 = test system: SK-MEL-2
CAKI-1 = test system: CAKI-1
A549 = test system: A549
NCI-H226 = test system: NCI-H226
MCF7 = test system: MCF7

Structure (SMILES) | GI50 (HCT-15) | GI50 (RPMI-8226) | GI50 (HOP-62) | GI50 (Malme-3M) | GI50 (NCI-H460) | GI50 (CCRF-CEM) | GI50 (NCI-H23) | GI50 (HL-60) | GI50 (TK-10) | GI50 (SF-295) | GI50 (SN12C) | GI50 (EKVX) | GI50 (UACC-62) | GI50 (OVCAR-3) | GI50 (KM12) | GI50 (SK-MEL-2) | GI50 (CAKI-1) | GI50 (A549) | GI50 (NCI-H226) | GI50 (MCF7)
CC1(C)Cc2nnsc2C2=C1C(=O)CCS2 | > 100 µM | > 100 µM (inactive) | > 100 µM (inactive) | > 100 µM (inactive) | > 100 µM (inactive) | > 100 µM (inactive) | > 100 µM (inactive) | > 100 µM (inactive) | > 100 µM (inactive) | > 100 µM (inactive) | > 100 µM (inactive) | > 100 µM (inactive) | > 100 µM (inactive) | > 100 µM (inactive) | > 100 µM (inactive) | > 100 µM (inactive) | > 100 µM (inactive) | > 100 µM (inactive) | – | –
O=C(Nc1nnc(S)[nH]1)C(=O)C(c1cnc2ccc([N+](=O)[O-])cc2n1)[N+](=O)[O-] (centres undefined) | 72.9 µM | 89.7 µM (inactive) | > 100 µM (inactive) | > 100 µM (inactive) | > 100 µM (inactive) | > 100 µM (inactive) | > 100 µM (inactive) | > 100 µM (inactive) | > 100 µM (inactive) | > 100 µM (inactive) | > 100 µM (inactive) | > 100 µM (inactive) | > 100 µM (inactive) | > 100 µM (inactive) | > 100 µM (inactive) | – | > 100 µM (inactive) | > 100 µM (inactive) | > 100 µM (inactive) | –
O=C1c2[nH]c3ccc(Br)cc3c2CCN1Cc1ccc(Cl)cc1 | 3.99 µM | > 10 µM (inactive) | 12.9 µM (inactive) | 15.3 µM (inactive) | – | 12.3 µM (inactive) | 17.1 µM (inactive) | 17.3 µM (inactive) | 13.7 µM (inactive) | 12.8 µM (inactive) | 19.3 µM (inactive) | > 100 µM (inactive) | 14.1 µM (inactive) | 15.2 µM (inactive) | 14.1 µM (inactive) | 19.1 µM (inactive) | 19.5 µM (inactive) | 12.7 µM (inactive) | – | 16.6 µM (inactive)
COc1ccc(-n2cnnc2-c2nsc3ccccc23)cc1 | 51.6 µM | 60 µM (inactive) | 94.8 µM (inactive) | – | > 100 µM (inactive) | > 100 µM (inactive) | 95.3 µM (inactive) | 78 µM (inactive) | > 100 µM (inactive) | – | 99.8 µM (inactive) | > 100 µM (inactive) | > 100 µM (inactive) | 51.4 µM (inactive) | 95.1 µM (inactive) | > 100 µM (inactive) | – | > 100 µM (inactive) | – | –
c1cc(CNC2C3CCC(C3)C2c2c[nH]c3ccccc23)cc(CNC2C3CCC(C3)C2c2c[nH]c3ccccc23)c1 (centres undefined) | – | 0.207 µM (active) | 1.85 µM (inactive) and 1.77 µM (inactive) | 1.87 µM (inactive) and 1.77 µM (inactive) | 366 nM (active) and 405 nM (active) | 195 nM (active) and 325 nM (active) | 1.68 µM (inactive) and 1.77 µM (inactive) | – | 1.73 µM (inactive) and 1.94 µM (inactive) | 1.73 µM (inactive) and 1.46 µM (inactive) | – | 1.76 µM (inactive) and 1.58 µM (inactive) | 1.81 µM (inactive) and 1.74 µM (inactive) | 1.76 µM (inactive) and 1.71 µM (inactive) | 596 nM (active) and 759 nM (active) | 1.57 µM (inactive) and 1.91 µM (inactive) | 1.65 µM (inactive) and 1.73 µM (inactive) | 600 nM (active) and 773 nM (active) | 2 µM (inactive) and 2.07 µM (inactive) | 0.205 µM (active)
COc1ccc(N2C(=O)C(=O)C3(CCCCC3)C2=O)c2ccccc12 | > 10 µM | > 10 µM (inactive) | > 10 µM (inactive) | > 10 µM (inactive) | > 10 µM (inactive) | > 10 µM (inactive) | > 10 µM (inactive) | > 10 µM (inactive) | > 10 µM (inactive) | > 10 µM (inactive) | > 10 µM (inactive) | > 10 µM (inactive) | > 10 µM (inactive) | – | > 10 µM (inactive) | > 10 µM (inactive) | > 10 µM (inactive) | > 10 µM (inactive) | > 10 µM (inactive) | > 10 µM (inactive)
C=CC(OC(C)=O)c1ccc(OC(C)=O)cc1 (centres undefined) | 8.24 µM | 2.25 µM (inactive) | 3.82 µM (inactive) | 2.92 µM (inactive) | 17.1 µM (inactive) | – | 17 µM (inactive) | 3.79 µM (inactive) | 2.17 µM (inactive) | 7.62 µM (inactive) | 2.1 µM (inactive) | 13.8 µM (inactive) | 14.8 µM (inactive) | 6.11 µM (inactive) | 5.57 µM (inactive) | 4.97 µM (inactive) | 4.88 µM (inactive) | 19.8 µM (inactive) | 15.7 µM (inactive) | 11.4 µM (inactive)
CCN(CC)CCn1c(=O)c2c(C)c3oc4ccccc4oc3c(C)c2c1=O | > 100 µM | > 100 µM (inactive) | > 100 µM (inactive) | > 100 µM (inactive) | > 100 µM (inactive) | > 100 µM (inactive) | – | > 100 µM (inactive) | > 100 µM (inactive) | > 100 µM (inactive) | > 100 µM (inactive) | > 100 µM (inactive) | > 100 µM (inactive) | – | > 100 µM (inactive) | > 100 µM (inactive) | > 100 µM (inactive) | > 100 µM (inactive) | > 100 µM (inactive) | > 100 µM (inactive)
O=c1sc2ccccc2n1CC1CS1 (centres undefined) | > 100 µM | > 100 µM (inactive) | > 100 µM (inactive) | > 100 µM (inactive) | > 100 µM (inactive) | > 100 µM (inactive) | – | > 100 µM (inactive) | > 100 µM (inactive) | > 100 µM (inactive) | > 100 µM (inactive) | > 100 µM (inactive) | > 100 µM (inactive) | > 100 µM (inactive) | > 100 µM (inactive) | > 100 µM (inactive) | > 100 µM (inactive) | > 100 µM (inactive) | > 100 µM (inactive) | –
C/C(CCOC1CCCCO1)=C(\C)[Si](C)(C)C (centres undefined) | > 100 µM | > 100 µM (inactive) | – | > 100 µM (inactive) | > 100 µM (inactive) | 65.5 µM (inactive) | > 100 µM (inactive) | 93.3 µM (inactive) | > 100 µM (inactive) | > 100 µM (inactive) | > 100 µM (inactive) | > 100 µM (inactive) | > 100 µM (inactive) | > 100 µM (inactive) | > 100 µM (inactive) | > 100 µM (inactive) | – | > 100 µM (inactive) | – | –
C[n+]1cccc2c(=O)c3ccccc3oc21 | > 100 µM | – | > 100 µM (inactive) | > 100 µM (inactive) | > 100 µM (inactive) | > 100 µM (inactive) | > 100 µM (inactive) | > 100 µM (inactive) | > 100 µM (inactive) | > 100 µM (inactive) | > 100 µM (inactive) | > 100 µM (inactive) | > 100 µM (inactive) | > 100 µM (inactive) | > 100 µM (inactive) | > 100 µM (inactive) | > 100 µM (inactive) | > 100 µM (inactive) | > 100 µM (inactive) | > 100 µM (inactive)
CN(C)CCNc1ccc(NCC[N+](C)(C)Cc2ccc([N+](=O)[O-])cc2)c2c1C(=O)c1ccccc1C2=O | – | 10.8 µM (inactive) | 19.8 µM (inactive) | 22.6 µM (inactive) | – | – | 20.2 µM (inactive) | 4.28 µM (inactive) | > 25 µM (inactive) | 18.6 µM (inactive) | 5.56 µM (inactive) | > 25 µM (inactive) | 18.5 µM (inactive) | 12 µM (inactive) | 13.8 µM (inactive) | > 25 µM (inactive) | 3.01 µM (inactive) | 23.4 µM (inactive) | 23.4 µM (inactive) | 11.9 µM (inactive)
Nc1ccn(C2OC(COP(=O)(O)Oc3ccccc3)C(O)C2O)c(=O)n1 (centres undefined) | > 60 µM | > 100 µM (inactive) | – | > 35.3 µM (inactive) | 2.6 µM (inactive) | 1.01 µM (active) | 7.36 µM (inactive) | 61.2 µM (inactive) | – | > 100 µM (inactive) | 12.7 µM (inactive) | 13.5 µM (inactive) | 56.5 µM (inactive) | > 100 µM (inactive) | > 100 µM (inactive) | > 100 µM (inactive) | 24.5 µM (inactive) | 3.73 µM (inactive) | > 100 µM (inactive) | 13 µM (inactive)
CCOC(=O)CNC(=O)C(Cc1ccccc1)NC(=O)C(C)(C)NC(=O)OCc1ccccc1 (centres undefined) (Cbz-[Aib]-[ξF]-Gly-OEt) | > 100 µM | 32.6 µM (inactive) | > 100 µM (inactive) | 18.6 µM (inactive) | > 10 µM (inactive) | > 100 µM (inactive) | – | 32.9 µM (inactive) | > 100 µM (inactive) | > 100 µM (inactive) | – | > 100 µM (inactive) | 19.6 µM (inactive) | 21.5 µM (inactive) | – | – | > 100 µM (inactive) | > 100 µM (inactive) | – | > 100 µM (inactive)
C=CCCCC12CCCc3cccc(c31)NC2=O (centres undefined) | – | 19.7 µM (inactive) | 34 µM (inactive) | 15.6 µM (inactive) | 16.8 µM (inactive) | 16.9 µM (inactive) | 18.1 µM (inactive) | 15.5 µM (inactive) | 19.6 µM (inactive) | 76.2 µM (inactive) | 32.4 µM (inactive) | 19.1 µM (inactive) | 16.8 µM (inactive) | 18 µM (inactive) | 17.4 µM (inactive) | 23.2 µM (inactive) | – | 20.2 µM (inactive) | 20.6 µM (inactive) | –
O=c1[nH]c(=S)[nH]c2c(C3OC(CO)C(O)C3O)nsc12 (centres undefined) | > 100 µM | – | > 100 µM (inactive) | > 100 µM (inactive) | > 100 µM (inactive) | > 100 µM (inactive) | – | > 100 µM (inactive) | > 100 µM (inactive) | > 100 µM (inactive) | > 100 µM (inactive) | > 100 µM (inactive) | > 100 µM (inactive) | > 100 µM (inactive) | – | > 100 µM (inactive) | > 100 µM (inactive) | > 100 µM (inactive) | > 100 µM (inactive) | > 100 µM (inactive)
